These results are taken from patent US20070225348A1, “Amino acid composition for improving glucose tolerance” (priority 2005, published 2007).

Each structure is given as a SMILES string.

The subject of this assay is Zucker Diabetic Fatty rats (model with type 2 diabetes mellitus). The assay is described as follows: Experiment 2: blood glucose response after oral gavage of glucose with amino acid test mixture or isoleucine solution. It is filed as in vivo, rat. Conditions: oral gavage 8 ml/kg with glucose, measured at 30, 60, 90 and 120 minutes, control 22.5% glucose solution. As for the experimental part:
The control formula (22.5% glucose solution) and the amino acid test formula described in Experiment 1 are prepared and subsequently used in this second experiment, along with an isoleucine mixture as described below. In this second experiment, a high dose isoleucine mixture is prepared by adding L-isoleucine ([…]) to 50 ml beaker followed by 10 ml of 1N HCL. The beaker contents are mixed until dissolved, and thereafter to it is added with agitation 25 ml of a 45% glucose solution. The pH of the resulting mixture is adjusted to 7.0 (+/−1.0) with a 50% sodium hydroxide solution (buffer may be added to stabilize pH). The pH adjusted mixture is transferred to a 50 ml volumetric and brought to volume with distilled water. The mixture is transferred to a beaker with stir bar and continually stirred while filling syringes. Zucker Diabetic Fatty rats, a model of type 2 diabetes, are received at the animal facility for at least one week before testing. Each is weighed the day before the experiment and then assigned to one of […] matched for body weight. After an overnight fast, each rat is weighed and then dosed at 8 ml/kg body weight (oral gavage) with the glucose control, the amino acid test mixture, or the isoleucine solution. Blood glucose concentrations are then measured from the tip of the tail of each animal at 30, 60, 90 and 120 minutes following the gavage.

`CC[C@H](C)[C@H](N)C(=O)O` [high dose isoleucine, L-isoleucine]: the “blood glucose concentrations relative to the control” value is “does not significantly affect blood glucose concentrations”.
